{"source": "patent US20050004227A1", "about": "“Cell growth inhibitor” (priority 2001, published 2005)", "assay_type_in_all_cases": "cell-based", "key": {"PepT1": {"target": "T1, PepT1 (Homo sapiens, UniProt P46059)", "T1 construct": "In Caco-2 cells, only PepT1 was expressed; endogenous in cells; host or cells: Caco-2 (human colon cancer cell line)", "T1 sequence (P46059 1-708)": "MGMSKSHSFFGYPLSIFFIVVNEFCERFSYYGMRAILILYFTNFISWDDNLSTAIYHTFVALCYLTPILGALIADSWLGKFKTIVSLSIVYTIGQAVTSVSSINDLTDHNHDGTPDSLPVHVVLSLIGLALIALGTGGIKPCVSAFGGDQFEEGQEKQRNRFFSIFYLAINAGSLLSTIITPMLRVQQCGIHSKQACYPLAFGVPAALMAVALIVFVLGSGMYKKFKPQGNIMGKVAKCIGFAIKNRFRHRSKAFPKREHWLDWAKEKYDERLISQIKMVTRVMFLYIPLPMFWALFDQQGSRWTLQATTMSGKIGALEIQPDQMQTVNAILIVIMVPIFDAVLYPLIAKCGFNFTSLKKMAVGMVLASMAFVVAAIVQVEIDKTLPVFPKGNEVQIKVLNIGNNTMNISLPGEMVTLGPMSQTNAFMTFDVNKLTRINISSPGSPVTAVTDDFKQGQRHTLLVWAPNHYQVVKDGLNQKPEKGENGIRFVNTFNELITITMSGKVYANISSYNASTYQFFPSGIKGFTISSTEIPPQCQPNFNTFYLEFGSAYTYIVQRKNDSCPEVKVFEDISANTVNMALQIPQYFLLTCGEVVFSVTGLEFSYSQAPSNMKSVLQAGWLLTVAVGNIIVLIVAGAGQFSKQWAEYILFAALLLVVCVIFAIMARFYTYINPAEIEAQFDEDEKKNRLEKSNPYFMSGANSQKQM", "experiment": "Inhibition of [14C] glycylsarcosine uptake into Caco-2 cells", "method": "AT-264's ability to inhibit PepT was examined using a human colon cancer cell line (Caco-2 cells). The results were that the IC50 for uptake of radioactive substrate [^14C] glycylsarcosine into cells was 100 μM (FIG. 1). In Caco-2 cells, only PepT1 was expressed, and PepT1 function was considered to be inhibited by AT-264. The purity of AT-264 used in the present experiment was approximately 50% to 60%, and the actual IC50 was thought to be about 50 μM or so."}, "[1]": {"test_system": "human pancreatic cancer cell line AsPC-1", "experiment": "Cell growth inhibition of AsPC-1, MTS assay", "method": "(§1) AT-264 was dissolved in RPMI1640—10 mM Hepes (hereinafter, abbreviated to ‘the medium’) containing 0.5% ethanol and 0.5% DMSO to prepare 2.5 mM AT-264 solution. Then, this solution was diluted with the medium to prepare 0.625 mM and 0.0625 mM AT-264 solutions.\nA 5×10^4 cells/mL solution of human pancreatic cancer cell line AsPC-1 was prepared using a medium containing 50% FBS. This suspension was plated onto a 96-well plate pre-coated with Collagen type I at 40 μL/well (2×10^3 cells), and 160 μL of the AT-264 solution was added. This was cultured for six days in a CO2 incubator (on the second day of culturing, 100 units/mL penicillin and 0.1 mg/mL streptomycin were added). On the sixth day of culturing, the number of viable cells was quantified by MTS assay."}, "human PepT2": {"target": "T2, human PepT2 (Homo sapiens, UniProt Q16348)", "T2 construct": "expressed in transfected cells; host or cells: BaF3 (murine bone marrow-derived cell line)", "T2 sequence (Q16348 1-729)": "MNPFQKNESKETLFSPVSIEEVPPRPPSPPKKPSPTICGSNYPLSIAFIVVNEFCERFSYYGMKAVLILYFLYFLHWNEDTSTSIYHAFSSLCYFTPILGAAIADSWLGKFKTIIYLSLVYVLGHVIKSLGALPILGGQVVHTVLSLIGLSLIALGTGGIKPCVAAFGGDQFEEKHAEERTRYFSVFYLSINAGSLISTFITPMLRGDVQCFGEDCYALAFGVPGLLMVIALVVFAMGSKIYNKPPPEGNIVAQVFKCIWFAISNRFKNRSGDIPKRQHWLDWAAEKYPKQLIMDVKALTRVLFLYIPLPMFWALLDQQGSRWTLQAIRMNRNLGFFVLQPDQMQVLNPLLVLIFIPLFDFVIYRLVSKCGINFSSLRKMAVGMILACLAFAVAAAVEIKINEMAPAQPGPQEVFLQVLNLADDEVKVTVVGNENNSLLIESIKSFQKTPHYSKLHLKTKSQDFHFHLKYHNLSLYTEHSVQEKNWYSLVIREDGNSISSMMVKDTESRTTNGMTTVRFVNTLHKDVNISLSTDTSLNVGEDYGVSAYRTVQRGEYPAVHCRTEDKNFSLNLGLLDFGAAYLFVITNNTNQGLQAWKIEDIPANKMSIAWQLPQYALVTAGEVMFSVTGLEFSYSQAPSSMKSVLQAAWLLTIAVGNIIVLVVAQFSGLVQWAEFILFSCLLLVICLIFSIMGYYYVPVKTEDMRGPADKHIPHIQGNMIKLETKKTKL", "experiment": "Inhibition of [3H] glycylsarcosine uptake into BaF3/PepT2 cells", "from_the_text": "The ability of AT-264 to inhibit PepT2 was examined using a murine bone marrow-derived cell line BaF3 in which human PepT2 is forced to be expressed (hereinafter, abbreviated to BaF3/PepT2)."}, "[2]": {"test_system": "human pancreatic cancer cell line BxPC-3", "experiment": "Cell growth inhibition of BxPC-3, MTS assay", "method": "as §1, with “Hepes with 100 units/mL penicillin and 0.1 mg/mL streptomycin” for “Hepes”, “Furthermore,” for “Then,”\n5×10^4 cells/mL solution of BxPC-3 was prepared using the medium containing 50% FBS. This suspension was plated onto a 96-well plate pre-coated with Collagen type I at 40 μL/well (2×10^3 cells), and 160 μL of AT-264 solution was added. This was cultured for six days in a CO2 incubator, and on the sixth day of culturing, the number of viable cells was quantified by MTS assay."}}, "note": "Where two headings read alike, the source gives them in different places.", "data": [{"smiles": "N=C(N)c1cccc(CC(NS(=O)(=O)NCc2cccc3ccccc23)C(=O)N2CCCCC2C(=O)O)c1", "note": "(stereo not drawn) [AT-264]", "values": [{"measurement": "IC50", "setting": "PepT1; AT-264 purity approximately 50% to 60%, read-out: IC50 for uptake of radioactive substrate [14C] glycylsarcosine into cells", "value": 100, "unit": "µM"}, {"measurement": "IC50", "setting": "PepT1; estimated from purity of approximately 50% to 60%, read-out: actual IC50 (corrected for purity of AT-264)", "value": "~50", "unit": "µM"}, {"measurement": "Cell growth inhibition", "setting": "[1]; AsPC-1, 0.5 mM AT-264, six days culture", "value": "slight"}, {"measurement": "inhibition at 2000 µM", "setting": "[1]; Homo sapiens, ASPC1, 144 h, AsPC-1, 2 mM AT-264, six days culture", "value": "~30", "unit": "%"}, {"measurement": "Morphological changes to AsPC-1 under the microscope", "setting": "[1]; in the presence of AT-264", "value": "not observed"}, {"measurement": "uptake of radioactive substrate [3H] glycylsarcosine into cells", "setting": "human PepT2", "value": "inhibited in a concentration-dependent manner"}, {"measurement": "inhibition at 500 µM", "setting": "[2]; Homo sapiens, 144 h, BxPC-3, 0.5 mM AT-264, six days culture", "value": "~20", "unit": "%"}, {"measurement": "inhibition at 2000 µM", "setting": "[2]; Homo sapiens, 144 h, BxPC-3, 2 mM AT-264, six days culture", "value": "~75", "unit": "%"}, {"measurement": "Morphological changes to BxPC-3 under the microscope", "setting": "[2]; in the presence of AT-264", "value": "not observed"}]}]}
